Laboratory results as given in patent US20200386744A1, “NOVEL SCREENING METHOD FOR TGF-BETA INHIBITOR” (The Doshisha, priority 2017, published 2020).
Where a name gives a salt, the structure may show the parent alone. Read-outs that look alike come from different tables or passages of the source.

Assays:
[1] = system: immortalized Fuchs' endothelial corneal dystrophy cells (iFECD); test: Cell viability (CellTiter-Glo Luminescent Cell Viability Assay) in iFECD, secondary screening; assay type: cell-based, human; conditions: agent 10 μM, absence of TGF-β; for Secondary screening Viable cell number (%): 28 hours, n=2, vs candidate compound non-contacted group
Method: In one embodiment, step (b) comprises measurement of cell viability. […] The cell viability is measured in the absence of TGF-β. […] The threshold value of the cell viability may be about 80%, about 85%, about 90%, about 95%, about 98%, about 99%, about 100%. […] Thus, a drug can be accurately selected by measuring cell number in addition to measuring caspase activity. Although the compounds shown in Table 2 appeared to be suppressing caspase activity, the compounds had strong toxicity, wherein cell viability went below 90%, and were thereby removed in the secondary screening.
Cell viability is calculated as an indicator of toxicity with n=2 in CellTiter-Glo® Luminescent Cell Viability Assay (Promega catalogue number: G7570). The cell viability was measured after culturing the cells in Dulbecco's Modified Eagle Medium (DMEM)+2% fetal bovine serum (FBS)+1% penicillin/streptomycin (P/S) for 28 hours. The cell viability was measured in the absence of TGF-β. When the cell viability was below 90%, the cells were removed from ranking.

[2] = system: immortalized Fuchs' endothelial corneal dystrophy cells (iFECD); test: Caspase 3/7 activity (Caspase-Glo 3/7 Assay) in iFECD under TGF-β2 stimulation, primary and secondary screening; assay type: cell-based, human; conditions: for activity at 10 µM: Homo sapiens
Method: 7×10^3 immortalized Fuchs' endothelial corneal dystrophy cells were seeded on a 96-well plate and were cultured for 24 hours under the condition of 5% CO2 at 37° C. Dulbecco's Modified Eagle Medium (DMEM) (nacalai tesque, 26252-94)+10% FBS (Biological Industries/04-001-1A)+1% penicillin-streptomycin (nacalai tesque, 26252-94) was used as the medium. Next, TGF-β2 (manufacturer: R&D Systems, Inc., distributor: Wako Pure Chemical Industries, Ltd./manufacturer codes 302-B2-002, 302-B2-010, distributor codes: 553-62881, 559-62883) (5 ng/mL) alone, or both TGF-β2 (5 ng/mL) and each agent of SCREEN-WELL® FDA Approved Drug Library V2, Japan version (10 μM) were added. After 28 hours under the condition of 5% CO2 at 37° C., cell morphology was observed using a phase difference microscope. Caspase 3/7 activity was then measured using Caspase-Glo 3/7 Assay (Promega, #G8091). DMEM+2% FBS+1% P/S was used as the medium. Caspase 3/7 activity and cell viability in this example were measured using Veritas™ Microplate Luminometer. Such a device enables many samples to be simultaneously measured.
The control group was supplemented with a solvent of each reagent, i.e., DMSO (Dimethyl Sulfoxide, Sterile-filtered) (nacalai tesque, 13408-64). Further, Z-VD-FMK (isomer mixture) (Wako Pure Chemical Industries, Ltd./262-02061) (10 μM), which is a caspase inhibitor, was used as the positive control. In the primary screening, measurement of Caspase 3/7 activity was carried out with n=2. […] Caspase activity was measured after being cultured in Dulbecco's Modified Eagle Medium (DMEM)+2% fetal bovine serum (FBS)+1% penicillin/streptomycin (P/S) for 28 hours.
Measurement was carried out with n=2 as the primary screening and a TGF-β2 (5 ng/mL) supplemented group was set as 100%. […] (1) and (2) of the control group, TGF-β2 (5 ng/mL) supplemented group, TGF-β2 (5 ng/mL)+Z-VD-FMK supplemented group (10 μM) are n=5 in total.
Evaluation of Caspase 3/7 activity was carried out with n=5 in the secondary screening.

[3] = 28 h, secondary screening Caspase 3/7 activity divided by cell viability, read-out: Caspase 3/7 activity/Viable cell number (%)
[4] = TGF-β2 5 ng/mL + agent 10 μM, 28 hours, n=2, TGF-β2 supplemented group set as 100%, read-out: Primary screening Caspase 3/7 activity (%)
[5] = TGF-β2 5 ng/mL + agent 10 μM, 28 hours, n=5, vs candidate compound non-contacted group, read-out: Secondary screening Caspase 3/7 activity (%)

Row | Compound | Cell viability class mark (before Viable cell number) [1] | Secondary screening Viable cell number (%) [1] [%] | Primary screening Caspase 3/7 activity (%) ([2]; TGF-β2 5 ng/mL + agent 10 μM, 28 hours, n=2, TGF-β2 supplemented group set as 100%) | Secondary screening Caspase 3/7 activity (%) ([2]; TGF-β2 5 ng/mL + agent 10 μM, 28 hours, n=5, vs candidate compound non-contacted group) | Caspase 3/7 activity/Viable cell number (%) ([2]; secondary screening Caspase 3/7 activity divided by cell viability) | activity at 10 µM [2, 3] [%] | activity at 10 µM [2, 4] [%] | activity at 10 µM [2, 5] [%]
1 | CCCC(=O)Nc1ccc(OCC(O)CNC(C)C)c(C(C)=O)c1.Cl (stereo not shown) [Acebutolol•HCl] | ∘ (90% or more cell viability) | 99.77 | 74.30 | 88.05 | 88.25 | – | – | –
2 | CN1CC2c3ccccc3Oc3ccc(Cl)cc3C2C1 (stereo not shown) [Asenapine Maleate] | ∘ (90% or more cell viability) | 101.64 | – | – | – | 87.4 | 72.8 | 88.8
3 | COc1ccccc1OCCNCC(O)COc1cccc2[nH]c3ccccc3c12 (stereo not shown) [Carvedilol] | x (less than 90% cell viability) | 89.1 | – | – | – | 71.9 | 50.3 | 64.1
4 | O=C(O)c1ccc(-n2nc(-c3ccccc3O)nc2-c2ccccc2O)cc1 [Deferasirox] | x (less than 90% cell viability) | 56.04 | – | – | – | 68.9 | 50 | 38.6
5 | N#Cc1ccc(C(c2ccc(C#N)cc2)n2cncn2)cc1 [Letrozole] | ∘ (90% or more cell viability) | 101.3 | – | – | – | 102 | 71.2 | 104
6 | Cc1[nH]c(=O)c(C#N)cc1-c1ccncc1 [Milrinone] | ∘ (90% or more cell viability) | 99.67 | – | – | – | 95.2 | 62.5 | 94.9
7 | COc1c(C)c2c(c(O)c1C/C=C(\C)CCC(=O)OCCN1CCOCC1)C(=O)OC2 [Mycophenolate Mofetil] | x (less than 90% cell viability) | 67.7 | – | – | – | 70.4 | 46.4 | 47.6
8 | CC(=O)Oc1ccccc1C(=O)Nc1ncc([N+](=O)[O-])s1 [Nitazoxanide] | x (less than 90% cell viability) | 87.81 | – | – | – | 49.3 | 36.5 | 43.3
9 | CC[C@@H]1/C=C(\C)C[C@H](C)C[C@H](OC)[C@H]2O[C@@](O)(C(=O)C(=O)N3CCCC[C@H]3C(=O)O[C@H](/C(C)=C/[C@@H]3CC[C@H](Cl)[C@H](OC)C3)[C@H](C)[C@@H](O)CC1=O)[C@H](C)C[C@@H]2OC [Pimecrolimus] | x (less than 90% cell viability) | 84.64 | – | – | – | 62.6 | 70.1 | 53
10 | COc1cc(NC(C)CCCN)c2ncccc2c1 (stereo not shown) [Primaquine Phosphate] | ∘ (90% or more cell viability) | 99.7 | – | – | – | – | – | –
11 | CN(C)[C@@H]1C(O)=C(C(N)=O)C(=O)[C@@]2(O)C(O)=C3C(=O)c4c(O)cccc4[C@@](C)(O)[C@H]3C[C@@H]12 [Tetracycline] | ∘ (90% or more cell viability) | 99.31 | – | – | – | 94.3 | 60.1 | 93.7
